Assay results reported in PubChem BioAssay (NCI).
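Method: 48-hour compound exposure of cells in 96-well plates, five concentrations, linear interpolation of endpoints. The concentration for 50% growth inhibition is given as GI50. At the TGI there is no net growth.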

How the values were obtained:
Assay in all cases: inhibition of tumour cell growth, NCI panel, 48 h
MCF7 breast = system: MCF7 breast
MOLT-4 leukemia = system: MOLT-4 leukemia
SF-268 CNS = system: SF-268 CNS
NCI-H460 lung = system: NCI-H460 lung
HCT-116 colon = system: HCT-116 colon
HCC-2998 colon = system: HCC-2998 colon
OVCAR-8 ovarian = system: OVCAR-8 ovarian
NCI-H23 lung = system: NCI-H23 lung
786-0 renal = system: 786-0 renal
SK-MEL-2 melanoma = system: SK-MEL-2 melanoma

Compound | GI50 (MCF7 breast) [nM] | TGI (MCF7 breast) [nM] | GI50 (MOLT-4 leukemia) [nM] | TGI (MOLT-4 leukemia) [nM] | GI50 (SF-268 CNS) [nM] | TGI (SF-268 CNS) [nM] | GI50 (NCI-H460 lung) [nM] | TGI (NCI-H460 lung) [nM] | GI50 (HCT-116 colon) [nM] | TGI (HCT-116 colon) [nM] | GI50 (HCC-2998 colon) [nM] | TGI (HCC-2998 colon) [nM] | GI50 (OVCAR-8 ovarian) [nM] | TGI (OVCAR-8 ovarian) [nM] | GI50 (NCI-H23 lung) [nM] | TGI (NCI-H23 lung) [nM] | GI50 (786-0 renal) [nM] | TGI (786-0 renal) [nM] | GI50 (SK-MEL-2 melanoma) [nM] | TGI (SK-MEL-2 melanoma) [nM]
CN(C)CCCn1c(=O)c2ccccc2c2cnc3[nH]ccc3c21 | 2740 | 11300 | 838 | 11000 | 1440 | 5020 | 800 | 2620 | 486 | 10300 | 2030 | 7720 | 1430 | 6880 | 1760 | 6620 | 850 | 10900 | 1790 | 5380
Cc1ccc([N+](=O)[O-])c2c(NCCNC(=O)c3cc(C(=O)NCCNc4ccnc5c(C)ccc([N+](=O)[O-])c45)n(C)n3)ccnc12 | – | > 21500 | – | > 46400 | – | > 100000 | – | > 100000 | – | > 100000 | – | > 100000 | – | > 100000 | – | > 100000 | – | 98200 | – | > 100000
C#Cc1cccc(Nc2nc(Cl)nc3cc(NC(=O)CCl)ccc23)c1 | 610 | 3120 | 564 | 1640 | 557 | 1480 | 1440 | 4240 | 449 | 975 | 700 | 2020 | 754 | 2650 | 962 | 3770 | 449 | 949 | 1160 | 3600
Nc1nc2c(C(=O)NCc3cccs3)nnn2c2cccc(Cl)c12 | – | > 100000 | – | > 100000 | – | > 100000 | – | > 100000 | – | > 100000 | – | > 100000 | – | > 100000 | – | > 100000 | – | > 100000 | – | > 100000
CC/C(Cc1ccccc1)=C(\c1ccc(OCCN2CCCC2)cc1)c1ccc(OC(=O)NCc2ccccc2)cc1 | 99.4 | 2160 | 2230 | 5660 | 1810 | 3770 | 1890 | 3420 | 1640 | 3000 | 1510 | 2940 | 1870 | 3670 | 3430 | 13700 | 1640 | 3000 | 2090 | 3990
